“Also recorded” adds a separate entry of the source.

What all share (assay type): in vivo, rat
The subject of assay [1] is Male Sprague-Dawley rats. In words: Conditioned freezing paradigm: consolidation of fear memory (xenon exposure immediately after fear conditioning). The note with it: for conditioned freezing to context (consolidation of fear memory) / conditioned freezing to tone (CS) (consolidation of fear memory): xenon 25% for 24 h immediately after tone+shock training, vs Air-treated, tested after exposure and retested 1 and 2 weeks later; for conditioned freezing to context (consolidation of fear memory): FIG. 1B; for conditioned freezing to tone (CS) (consolidation of fear memory): FIG. 1C. As to the method: (§1) An illustration of the methodology used for training and testing rats in the conditioned freezing paradigm is shown in FIG. 1 (see also Johansen et al., Cell, 2011, 147; 509-524). Male Sprague-Dawley rats (350-375 g) were housed for at least one week before the experiment. On the training day, rats were placed into a conditioning chamber, housed within a sound-attenuating cabinet (Med Associates, Georgia, Vt.), for 2 min before the onset of the conditioned stimulus (CS). The CS was a tone (5 kHz, 75 dB) that lasted for 30 s. The last 2 s of the CS were paired with a continuous foot shock (0.6 mA, the unconditioned stimulus (US)). Rats received two presentations of the CS+US (tone plus shock). After additional 30 s in the chamber, rats were randomly divided into two groups (n=4/group) and immediately placed in either the Air or xenon-exposure chambers. After 24-h of air or xenon (25%) exposure, rats were tested for retention of conditioned fear using conditioned freezing as a measure of fear. For the test, rats were placed into a different context and, 2 min later, were exposed to the tone CS (5 kHz, 75 dB) for 60 s. Freezing scores were calculated as the percentage of the total duration that the rat remained immobile (frozen) other than breathing during the first 2 min (freezing to context) and during presentation of the CS (freezing to tone). Rats were then returned to the main animal holding room (i.e. no more air or xenon exposure took place) and were retested 1 and 2 weeks later (re-test and 3rd test) as described above.

The subject of assay [2] is Male Sprague-Dawley rats. Description: Conditioned freezing paradigm: reconsolidation of fear memory (xenon exposure after reactivation test). The settings on record: xenon 25%, no react group (no reactivation test); for conditioned freezing to context, animals without reactivation test: FIG. 1F; for conditioned freezing to tone, animals without reactivation test: FIG. 1G.

For assay [3], the system named is Male Sprague-Dawley rats. The assay is described as above. The settings on record: for conditioned freezing to context (reconsolidation of fear memory): FIG. 1D; for conditioned freezing to tone (reconsolidation of fear memory): FIG. 1E. On the procedure: as §1
Newly formed memories, including traumatic memories, are stabilized over several hours after the acquisition for long-term storage. This process, termed consolidation, critically depends on the permanence of acquisition-induced synaptic modifications in the corresponding neural circuits and is NMDA-receptor dependent. Once retrieved, consolidated memory enters a labile state again and should be reconsolidated, or it will be diminished or lost (see Debiec, 2012). To explore the effects of xenon exposure on post-retrieval memory reconsolidation, the inventors trained and tested male Sprague-Dawley rats in the conditioned freezing paradigm described in the methods section above.
Immediately after the fear memory test (24 h post-conditioning), where animals are subjected to context and CS (tone) exposure previously paired with shock (on the training day), rats were placed in either the Air or xenon (25%) exposure chambers for 1 hr. Rats were then tested for conditioned freezing 48 hours later. […]

The mark [4] stands for this setting: xenon 25% for 1 hr after reactivation test 24 h post-conditioning, re-tested 48 hours later (PR-LTM1).
Where [5] appears, read: xenon 25% for 1 hr after reactivation test 24 h post-conditioning, re-tested 48 hours later (PR-LTM1), listed as Xe.
Setting [6] is: xenon 25% for one hour after reactivation, tested after another 48 hours (PR-LTM2).

In the case of `[Xe]` [xenon], the “fear memory / conditioned freezing, context and cue not separated” value in the assay with Male Sprague-Dawley rats [1] (inhaled xenon (25%), male Sprague-Dawley rats, vs non-treated animals, FIG. 1) was “significantly reduces the consolidation of fear memories; also recorded: significantly reduced conditioned freezing”. The “conditioned freezing to context (consolidation of fear memory)” value in the assay on Male Sprague-Dawley rats [1] is recorded as “reduced levels of conditioned freezing”; in the assay on Male Sprague-Dawley rats [1] (listed as Xe) it was “significant reduction in freezing”. In addition, the “conditioned freezing to tone (CS) (consolidation of fear memory)” value was “reduced levels of conditioned freezing” in the assay on Male Sprague-Dawley rats [1] and “also reduced” in the assay with Male Sprague-Dawley rats [1] (listed as Xe). The “conditioned freezing to context, animals without reactivation test” value is “does not block reconsolidation of conditioned fear” in the assay on Male Sprague-Dawley rats [2] and “no reduction in freezing” with Male Sprague-Dawley rats [2] (listed as Xe). Moreover, the “conditioned freezing to tone, animals without reactivation test” value is given as “does not block reconsolidation of conditioned fear” in the assay with Male Sprague-Dawley rats [2] and “no reduction in freezing” with Male Sprague-Dawley rats [2] (listed as Xe). For the same molecule, the figures for the “conditioned freezing to context (reconsolidation of fear memory)” value with Male Sprague-Dawley rats [3] (setting [4]), in the assay on Male Sprague-Dawley rats [3] (setting [5]) and with Male Sprague-Dawley rats [3] (setting [6]) were “reduces the expression of conditioned freezing; also recorded: blocks reconsolidation of conditioned fear”, “significantly less freezing” and “significantly less freezing”, respectively. Besides, the “conditioned freezing to tone (reconsolidation of fear memory)” value with Male Sprague-Dawley rats [3] (setting [4]) is listed as “reduces the expression of conditioned freezing; also recorded: blocks reconsolidation of conditioned fear”; with Male Sprague-Dawley rats [3] (setting [5]), “significantly less freezing”; with Male Sprague-Dawley rats [3] (setting [6]), “significantly less freezing”.

Source of the values: patent US20170312308A1, “XENON AND/OR ARGON TREATMENT AS AN ADJUNCT TO PSY[…] PSYCHIATRIC DISORDERS” (THE MCLEAN HOSPITAL CORPORATION, priority 2012, published 2017).
